Measured values from article PMC5991393, “Pharmacokinetic properties of a novel inosine analog, 4′-cyano-2′-deoxyinosine, after oral administration in rats” (PLoS ONE, 2018).
Entries after “also recorded” stand apart in the source; their conditions may differ. Values belong to the molecule of their own block, whether it stands above or below them.

Experiments:
HBVL180M/S202G/M204V = system: HBVL180M/S202G/M204V; design: method as in PMID 26122273; conditions: entecavir-resistant variant; cited from earlier work
HBVA181T/N236T = system: HBVA181T/N236T; design: method as in PMID 26122273; conditions: adefovir dipivoxil-resistant variant; cited from earlier work
wild-type HBV = system: wild-type HBV; design: method as in PMID 26122273; conditions: cited from earlier work
[1] = Pharmacokinetic study of oral co-administration of SK14-061a and ETV in rats; format: in vivo
Description: At stipulated times after the administration (15 min, 45 min, 90 min, 3, 6 and 9 hr), venous blood samples were collected by means of a heparinized syringe (0.25ml). The blood samples were centrifuged (3,000 rpm, 10 min) to obtain plasma. […] All data are expressed as the mean ± S.D. Statistical analyses for multiple comparisons were determined by an analysis of variance (two-way ANOVA) using the Bonferroni correction for multiple comparisons. A probability value of p < 0.05 was considered to be significant. A non-compartment model was used for the pharmacokinetic analysis. Parameters were calculated using the program of a moment analysis developed by Tabata et al. Half-life (t1/2) were calculated from the elimination phase. Area under the concentration-time curve (AUC) were calculated using the following equations: AUC=∫0∞Cdt

[2] = Clinical chemistry (liver and kidney toxicity) after oral SK14-061a; format: in vivo, Sprague-Dawley rats; conditions: p.o., 1 mg/kg, 9 hr after administration
Description: Sprague-Dawley rats (male, 230–270 g) were purchased from the Kyudo Co., Ltd. (Saga, Japan). All animals were maintained under conventional housing conditions, with food and water ad libitum in a temperature-controlled room with a 12 hr dark/light cycle. Maintenance of the animals and the experimental procedures performed on them were carried out in accordance with NIH guidelines. All animal experiments were reviewed and approved by the Animal Care and Use committee of Sojo University (Permit #: 2015-P-020). Eight rats were divided into two group: non-treatment group as a control (n = 4) and SK14-061a-treated group (p.o., 1 mg/kg, n = 4). […] The blood samples were centrifuged (3,000 g, 5 min) to obtain plasma for analysis of aspartate aminotransferase (AST), alanine aminotransferase (ALT), urea nitrogen (BUN) and creatinine. All plasma samples were stored at -80 °C prior to analysis by a commercial clinical testing laboratory (Oriental Yeast Co., Tokyo, Japan).

[3] = system: human α1-acid glycoprotein (AGP); experiment: Protein binding by ultrafiltration, AGP; format: in vitro ADME; conditions: 45 μM AGP, 500 ng/mL
Description: (§1) Protein binding assays were performed following a previous reported procedure, with minor modifications. In short, pooled human plasma, 600 μM HSA and 45 μM AGP were spiked with an aqueous solution of SK14-061a to produce a final SK14-061a concentration of 500 ng/mL, respectively. The unbound drug fraction was determined by ultrafiltration. Ultrafiltration was carried out using an Amicon® Ultra-0.5 mL centrifugal filter unit with an Ultracel®-30 membrane (Merck Millipore Company, MA). Samples of 500 μL were centrifuged at 14,000 g for 10 min. The SK14-061a concentration were determined by LC-MS without the SPE method.

[4] = Tissue distribution to liver and kidney after oral administration; format: in vivo; conditions: rats, p.o., 1 mg/kg
Description: (§2) Rats were fasted for 12 h but with free access to water before dosing. Rats were orally (p.o.) administered a SK14-061a solution at a dose of 1 mg/kg. At stipulated times after the administration (15 min, 45 min, 90 min, 3, 4.5, 6 and 9 hr), venous blood samples were collected from tail vein using a heparinized syringe (0.25ml). The blood samples were centrifuged (3,000 rpm, 10 min) to obtain plasma. Urine samples were collected in a metabolic cage for 9 hr after the administration of the SK14-061a solution. After obtaining the last blood sample, all rats were sacrificed and kidneys and liver collected. To determine the time-dependent tissue distribution of SK14-061a, rats were sacrificed and organs (kidneys and liver) were collected at 1 and 3 hr after the oral administration of SK14-061a at a dose of 1 mg/kg. To calculate bioavailability, plasma concentrations of SK14-061a after intravenous administration (1 mg/kg) were also obtained at 3 min, 15 min, 30 min, 1, 3, 6 and 9 hr. Before the LC-MS analysis, plasma samples that were collected for pharmacokinetic studies were treated in the same manner as described in the "Validation assays" section. A portion of the liver and kidney tissues (about 500 mg) were homogenized in water (1 mL). The homogenized samples were subsequently ultracentrifuged at 100,000 g for 1 hr, and the supernatant collected. Urine samples were centrifuged (3,000 rpm, 10 min) and the supernatants were used in the analyses. All samples derived from organs and urine were processed using a Waters Oasis MCX 96 well plate in the same manner as was used for the plasma samples before the LC-MS analysis.

[5] = Metabolism assay in vitro with rat liver microsomes; format: in vitro ADME; conditions: 100 ng/ml, 0.2 mg/ml rat liver microsomal protein, 60 min, 37°C
Description: SK14-061a (100 ng/ml) was incubated with the incubation mixtures (0.1 M potassium phosphate buffer (pH 7.4), 10 mM MgCl2, 1 mM EDTA, 1 mM NADP+, 10 mM glucose-6-phosphate, 10 units/ml glucose-6-phosphate dehydrogenase, and 0.2 mg/ml of rat liver microsomal protein). After a 5 min pre-incubation of the incubation mixture at 37°C, the metabolic reactions were initiated by the addition of SK14-061a. After 60 min, the SK14-061a was extracted from the incubation samples using the SPE method, and the SK14-061a concentration determined by LC-MS.

[6] = molecular target: T1, Human serum albumin (HSA) (Homo sapiens, UniProt P02768); experiment: Protein binding by ultrafiltration, HSA; format: in vitro ADME; conditions: 600 μM HSA, 500 ng/mL
T1 construct: purchased Sigma-Aldrich (Tokyo, Japan)
T1 sequence (P02768 25-609): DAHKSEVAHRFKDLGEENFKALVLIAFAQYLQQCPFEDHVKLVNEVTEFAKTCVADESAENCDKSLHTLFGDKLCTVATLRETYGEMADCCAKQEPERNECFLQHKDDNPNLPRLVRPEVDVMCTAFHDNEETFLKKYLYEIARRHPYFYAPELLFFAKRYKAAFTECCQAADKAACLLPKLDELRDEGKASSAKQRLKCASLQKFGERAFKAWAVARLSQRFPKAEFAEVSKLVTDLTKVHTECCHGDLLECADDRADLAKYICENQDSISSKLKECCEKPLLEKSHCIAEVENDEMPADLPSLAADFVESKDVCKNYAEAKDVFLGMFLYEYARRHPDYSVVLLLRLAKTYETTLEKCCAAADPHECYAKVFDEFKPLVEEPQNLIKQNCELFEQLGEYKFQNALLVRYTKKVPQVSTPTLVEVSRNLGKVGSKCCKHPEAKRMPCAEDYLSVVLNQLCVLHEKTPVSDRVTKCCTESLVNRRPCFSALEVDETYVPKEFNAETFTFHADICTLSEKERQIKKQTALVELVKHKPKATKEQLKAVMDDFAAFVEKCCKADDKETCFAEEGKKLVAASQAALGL
Description: as §1

[7] = Protein binding by ultrafiltration, pooled human plasma; format: in vitro ADME; conditions: read-out: protein binding rate in human pooled plasma (converted)
Description: as §1

HIV-1MDR = system: HIV-1MDR; design: method as in PMID 15200030; conditions: clone with Ala62Val, Val75Leu, Phe77Leu, Phe116Tyr, Gln115Met; cited from earlier work
[8] = Pharmacokinetic study of SK14-061a after oral and intravenous administration in rats; format: in vivo; conditions: 1 mg/kg
Description: as §2, with “analysis. All data are expressed as the mean ± S.D. Statistical analyses for multiple comparisons were determined by an analysis of variance (two-way ANOVA) using the Bonferroni correction for multiple comparisons. A probability value of p < 0.05 was considered to be significant. A non-compartment model was used for the pharmacokinetic analysis. Parameters were calculated using the program of a moment analysis developed by Tabata et al. Half-life (t1/2) were calculated from the elimination phase. Area under the concentration-time curve (AUC) were calculated using the following equations: AUC=∫0∞Cdt” for “analysis.”

[9] = Urinary excretion of unchanged SK14-061a after oral administration; format: in vivo, rats
Description: as §2, with “Urine samples were collected in a metabolic cage for 9 hr after the administration of the SK14-061a solution.” left out

HIV-1M184V = system: HIV-1M184V; design: method as in PMID 15200030; conditions: lamivudine-resistant; cited from earlier work
[10] = rat, plasma, po, 1 mg/kg, read-out: AUC
[11] = rat, plasma, po, 1 mg/kg, read-out: CL/F (converted)
[12] = rat, plasma, po, 1 mg/kg, read-out: Cmax
[13] = rat, plasma, po, 1 mg/kg, read-out: MRT
[14] = rat, plasma, po, 1 mg/kg, read-out: tmax
[15] = rats, p.o., ETV 1 mg/kg alone (SK14-061a (-))
[16] = rats, p.o., 1 mg/kg, 9 hr after oral administration

SMILES: N#C[C@]1(CO)O[C@@H](n2cnc3c(=O)[nH]c(N)nc32)C[C@@H]1O [4′-CN-2′-deoxyguanosine]
activity against HBVL180M/S202G/M204V (HBVL180M/S202G/M204V): highly active | activity against HBVA181T/N236T (HBVA181T/N236T): highly active | activity against wild-type HBV (wild-type HBV): highly active

half-life ([1]; rat, plasma, po, 1 mg/kg): 1.98 ± 0.51 h | AUC [1, 10]: 492 ± 31.5 ng·h/mL | CL/F [1, 11]: 34 mL/min/kg | Cmax [1, 12]: 135 ± 27.4 ng/mL | MRT [1, 13]: 3.24 ± 0.68 h | Tmax [1, 14]: 1.25 ± 0.43 h | AUC [1, 15]: 261 ± 16.2 ng·h/mL | CL/F [1, 15]: 64.2 ± 4.17 mL/min/kg | Cmax [1, 15]: 147 ± 5.82 ng/mL | MRT [1, 15]: 1.35 ± 0.03 h | Tmax [1, 15]: 0.75 h | t1/2 [1, 15]: 0.72 ± 0.05 h
SMILES: C=C1[C@H](CO)[C@@H](O)C[C@@H]1n1cnc2c(=O)[nH]c(N)nc21 [ETV, entecavir]

SMILES: N#C[C@]1(CO)O[C@@H](n2cnc3c(O)ncnc32)C[C@@H]1O [SK14-061a, 4′-cyano-2′-deoxyinosine]
change of alanine aminotransferase (ALT) vs control rats [2]: no significant changes | change of aspartate aminotransferase (AST) vs control rats [2]: no significant changes | change of blood urea nitrogen (BUN) vs control rats [2]: no significant changes | change of creatinine vs control rats [2]: no significant changes | binding rate to AGP [3]: about 22.1 ± 0.01% | distribution to liver compared with kidney [4]: distributed at higher levels to the liver than the kidney | time of maximum distribution in the kidney ([4]; sampled at 1, 3 and 9 hr): 1 h | time of maximum distribution in the liver ([4]; sampled at 1, 3 and 9 hr): 1 h | non-metabolized form detected after incubation with rat microsomes [5]: 73.7 ± 10.7% | binding rate to HSA [6]: about 14.7 ± 0.03% | fraction unbound at 500 ng/mL [7]: ~0.363 | half-life ([1]; rat, plasma, po, 1 mg/kg): 4.07 ± 2.2 h | AUC [1, 10]: 972 ± 185 ng·h/mL | CL/F [1, 11]: 17.7 mL/min/kg | Cmax [1, 12]: 165 ± 46.6 ng/mL | MRT [1, 13]: 3.14 ± 2.16 h | Tmax [1, 14]: 1.07 ± 0.4 h | activity against HIV-1MDR (HIV-1MDR): potent activity | half-life ([8]; rat, plasma, iv, rats): 3.01 ± 1.48 h | AUC ([8]; rat, plasma, iv, rats, i.v., read-out: AUC): 475 ± 82.2 ng·h/mL | Cmax ([8]; rat, plasma, iv, rats): 431 ± 36.3 ng/mL | MRT ([8]; rat, plasma, iv, rats): 3.58 ± 1.86 h | clearance ([8]; rat, plasma, iv, rats): 34.7 mL/min/kg | bioavailability ([8]; rat, plasma, oral, rats, p.o. vs i.v., read-out: F (bioavailability)): ~65% | CL/F ([8]; rat, plasma, po): 55.3 mL/min/kg | Cmax ([8]; rat, plasma, po): 48.8 ± 11.8 ng/mL | MRT ([8]; rat, plasma, po): 5.47 ± 1.52 h | half-life ([8]; rat, plasma, po, rats, alone (ETV (-))): ~3.6 h | AUC ([8]; rat, plasma, po, rats, p.o., alone (ETV (-)), read-out: AUC): 308 ± 49.7 ng·h/mL | Tmax ([8]; rat, plasma, po, rats, p.o., alone (ETV (-)), read-out: tmax): 1.3 h | MAT (mean absorption time) ([8]; rats, p.o. vs i.v.): 1.89 h | AUC ([8]; rats, p.o., alone (ETV (-))): 308 ± 49.7 ng·h/mL | Tmax ([8]; rats, p.o., alone (ETV (-))): 1.29 ± 0.34 h | SK14-061a accumulated in the urine as share of the administered dose ([9]; during 72 hr after oral administration, authors' other study): about 45% | dose excreted ([9]; rat, urine, po, rats, p.o., 1 mg/kg, 9 hr, taken together with bioavailability (approximately 65%), read-out: recovery of SK14-061a in urine taking bioavailability into account): ~30% | amount of unchanged SK14-061a accumulated in the urine [9, 16]: about 46 ± 17 μg | unchanged SK14-061a in urine as share of the administered dose [9, 16]: about 20% | activity against HIV-1M184V (HIV-1M184V): potent activity; also recorded: highly active
